# Laboratory results: US10815230B2, “Casein kinase 1 delta inhibitor” (ELECTROPHORETICS LIMITED, priority 2015, dated 2020)
# Tests used:
# Assay in all cases: KINOMEscan binding assay
# Settings in all cases: read-out: % Ctrl @ 10000 nM
# [1] = target: TGFBR1 (Homo sapiens, UniProt P36897)
# [2] = target: GSK3A (Homo sapiens, UniProt P49840)
# [3] = target: PCTK3 (Homo sapiens, UniProt Q07002)
# [4] = target: DAPK2 (Homo sapiens, UniProt Q9UIK4)
# [5] = target: T1, TYK2 JH2domain-pseudokinase (Homo sapiens, UniProt P29597)
# T1 construct: JH2domain-pseudokinase; purchased DiscoveRx (KINOMEscan, LeadHunter Discovery services)
# [6] = target: ABL1 (F317L) phosphorylated (Homo sapiens, UniProt P00519, F317L)
# [7] = target: PIK3CA (I800L) (Homo sapiens, UniProt P42336, I800L)
# [8] = target: RSK2 Kin.Dom.2-C-terminal (Homo sapiens, UniProt P51812)
# RSK2 Kin.Dom.2-C-terminal, sequence (P51812 422-679 limits assumed): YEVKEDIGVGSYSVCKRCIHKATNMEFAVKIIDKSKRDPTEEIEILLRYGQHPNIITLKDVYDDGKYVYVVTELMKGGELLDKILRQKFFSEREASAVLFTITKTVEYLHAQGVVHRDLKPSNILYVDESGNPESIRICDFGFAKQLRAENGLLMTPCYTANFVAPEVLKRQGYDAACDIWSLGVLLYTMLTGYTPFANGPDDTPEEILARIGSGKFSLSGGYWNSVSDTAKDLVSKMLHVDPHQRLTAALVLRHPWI
# [9] = target: NLK (Homo sapiens, UniProt Q9UBE8)
# NLK, sequence (Q9UBE8 whole entry): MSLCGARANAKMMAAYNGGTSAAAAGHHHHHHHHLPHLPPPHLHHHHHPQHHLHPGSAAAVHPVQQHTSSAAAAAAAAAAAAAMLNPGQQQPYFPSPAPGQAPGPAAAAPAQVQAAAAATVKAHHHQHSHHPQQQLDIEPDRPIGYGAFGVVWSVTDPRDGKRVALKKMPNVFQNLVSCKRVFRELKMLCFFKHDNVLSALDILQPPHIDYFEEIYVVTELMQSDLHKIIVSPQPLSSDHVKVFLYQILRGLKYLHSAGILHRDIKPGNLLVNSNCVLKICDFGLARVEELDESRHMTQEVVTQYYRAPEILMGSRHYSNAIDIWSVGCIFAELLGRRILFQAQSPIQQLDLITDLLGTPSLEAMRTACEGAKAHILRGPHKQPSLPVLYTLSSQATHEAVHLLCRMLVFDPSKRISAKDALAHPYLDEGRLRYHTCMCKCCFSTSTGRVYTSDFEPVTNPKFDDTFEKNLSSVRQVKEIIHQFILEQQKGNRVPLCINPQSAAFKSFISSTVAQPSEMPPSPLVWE
# [10] = target: SNRK (Homo sapiens, UniProt Q9NRH2)
# [11] = target: MLCK (Homo sapiens, UniProt Q32MK0)
# [12] = target: T2, MAP4K3 (Homo sapiens, UniProt Q8IVH8)
# T2 construct: T7 phage fusion (most assays) or DNA label after HEK293 expression; purchased DiscoveRx (KINOMEscan, LeadHunter Discovery services); host or cells: T7 phage in E. coli (BL21-derived) or HEK293
# [13] = target: EIF2AK1 (Homo sapiens, UniProt Q9BQI3)
# EIF2AK1, sequence (Q9BQI3 whole entry): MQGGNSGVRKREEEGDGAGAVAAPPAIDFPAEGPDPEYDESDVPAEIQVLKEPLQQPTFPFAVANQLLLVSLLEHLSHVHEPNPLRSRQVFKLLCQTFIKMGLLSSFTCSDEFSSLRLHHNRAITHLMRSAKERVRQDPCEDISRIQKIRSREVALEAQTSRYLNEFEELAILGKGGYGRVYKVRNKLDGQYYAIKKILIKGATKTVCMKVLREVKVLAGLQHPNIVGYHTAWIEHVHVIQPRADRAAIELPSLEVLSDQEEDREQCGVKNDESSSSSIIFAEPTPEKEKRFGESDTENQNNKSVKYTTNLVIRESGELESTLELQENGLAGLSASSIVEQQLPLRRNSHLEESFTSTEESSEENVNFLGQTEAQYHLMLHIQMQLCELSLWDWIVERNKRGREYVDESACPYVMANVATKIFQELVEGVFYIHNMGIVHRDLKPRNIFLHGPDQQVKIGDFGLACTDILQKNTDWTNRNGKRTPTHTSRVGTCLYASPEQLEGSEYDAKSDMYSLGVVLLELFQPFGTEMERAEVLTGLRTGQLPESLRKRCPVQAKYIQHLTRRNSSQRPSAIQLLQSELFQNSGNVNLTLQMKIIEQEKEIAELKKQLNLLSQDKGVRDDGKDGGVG
# [14] = target: T3, ZAP70 (Homo sapiens, UniProt P43403)
# T3 construct: purchased DiscoveRx (KINOMEscan, LeadHunter Discovery services)
# [15] = target: KIT (D816V) (Homo sapiens, UniProt P10721, D816V)
# [16] = target: CSF1R-autoinhibited (Homo sapiens, UniProt P07333)
# [17] = target: PIM2 (Homo sapiens, UniProt Q9P1W9)
# [18] = target: T4, ULK1 (Homo sapiens, UniProt O75385)
# T4 construct: purchased DiscoveRx (KINOMEscan, LeadHunter Discovery services)
# T4 sequence (O75385 whole entry): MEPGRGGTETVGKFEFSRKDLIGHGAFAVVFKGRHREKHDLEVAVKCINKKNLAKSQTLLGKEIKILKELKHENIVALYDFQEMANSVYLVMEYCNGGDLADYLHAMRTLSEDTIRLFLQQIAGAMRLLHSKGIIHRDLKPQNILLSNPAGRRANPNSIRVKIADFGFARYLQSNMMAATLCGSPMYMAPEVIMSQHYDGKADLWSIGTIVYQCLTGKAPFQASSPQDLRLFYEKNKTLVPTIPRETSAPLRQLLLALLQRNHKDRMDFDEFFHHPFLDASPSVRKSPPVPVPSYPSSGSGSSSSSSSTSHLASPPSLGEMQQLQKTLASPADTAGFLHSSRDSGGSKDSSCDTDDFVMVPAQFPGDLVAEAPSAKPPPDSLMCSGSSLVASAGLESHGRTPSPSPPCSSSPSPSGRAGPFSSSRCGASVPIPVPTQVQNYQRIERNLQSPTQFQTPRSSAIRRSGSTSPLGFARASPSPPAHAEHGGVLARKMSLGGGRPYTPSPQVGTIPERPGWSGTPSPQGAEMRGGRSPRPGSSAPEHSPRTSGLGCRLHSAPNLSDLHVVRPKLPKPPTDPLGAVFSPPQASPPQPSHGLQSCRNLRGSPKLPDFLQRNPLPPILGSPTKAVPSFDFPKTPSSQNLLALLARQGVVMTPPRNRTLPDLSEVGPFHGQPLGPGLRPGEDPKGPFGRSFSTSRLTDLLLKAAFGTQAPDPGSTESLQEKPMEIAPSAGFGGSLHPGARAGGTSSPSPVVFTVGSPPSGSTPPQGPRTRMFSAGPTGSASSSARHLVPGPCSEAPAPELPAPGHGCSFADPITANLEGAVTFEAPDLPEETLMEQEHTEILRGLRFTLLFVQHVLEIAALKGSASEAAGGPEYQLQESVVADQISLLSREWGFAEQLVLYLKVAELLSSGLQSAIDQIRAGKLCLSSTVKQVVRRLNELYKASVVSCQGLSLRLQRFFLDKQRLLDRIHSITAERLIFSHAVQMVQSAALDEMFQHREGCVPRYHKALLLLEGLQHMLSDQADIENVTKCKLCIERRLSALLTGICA
# [19] = target: ABL1 (Q252H) phosphorylated (Homo sapiens, UniProt P00519, Q252H)
# [20] = target: FAK (Homo sapiens, UniProt Q05397)
# [21] = target: CDK3 (Homo sapiens, UniProt Q00526)
# [22] = target: CAMK1 (Homo sapiens, UniProt Q14012)
# [23] = target: CAMKK2 (Homo sapiens, UniProt Q96RR4)
# [24] = target: EGFR (L858R, T790M) (Homo sapiens, UniProt P00533, L858R/T790M)
# EGFR (L858R, T790M), sequence (P00533 25-1210 T790M/L858R): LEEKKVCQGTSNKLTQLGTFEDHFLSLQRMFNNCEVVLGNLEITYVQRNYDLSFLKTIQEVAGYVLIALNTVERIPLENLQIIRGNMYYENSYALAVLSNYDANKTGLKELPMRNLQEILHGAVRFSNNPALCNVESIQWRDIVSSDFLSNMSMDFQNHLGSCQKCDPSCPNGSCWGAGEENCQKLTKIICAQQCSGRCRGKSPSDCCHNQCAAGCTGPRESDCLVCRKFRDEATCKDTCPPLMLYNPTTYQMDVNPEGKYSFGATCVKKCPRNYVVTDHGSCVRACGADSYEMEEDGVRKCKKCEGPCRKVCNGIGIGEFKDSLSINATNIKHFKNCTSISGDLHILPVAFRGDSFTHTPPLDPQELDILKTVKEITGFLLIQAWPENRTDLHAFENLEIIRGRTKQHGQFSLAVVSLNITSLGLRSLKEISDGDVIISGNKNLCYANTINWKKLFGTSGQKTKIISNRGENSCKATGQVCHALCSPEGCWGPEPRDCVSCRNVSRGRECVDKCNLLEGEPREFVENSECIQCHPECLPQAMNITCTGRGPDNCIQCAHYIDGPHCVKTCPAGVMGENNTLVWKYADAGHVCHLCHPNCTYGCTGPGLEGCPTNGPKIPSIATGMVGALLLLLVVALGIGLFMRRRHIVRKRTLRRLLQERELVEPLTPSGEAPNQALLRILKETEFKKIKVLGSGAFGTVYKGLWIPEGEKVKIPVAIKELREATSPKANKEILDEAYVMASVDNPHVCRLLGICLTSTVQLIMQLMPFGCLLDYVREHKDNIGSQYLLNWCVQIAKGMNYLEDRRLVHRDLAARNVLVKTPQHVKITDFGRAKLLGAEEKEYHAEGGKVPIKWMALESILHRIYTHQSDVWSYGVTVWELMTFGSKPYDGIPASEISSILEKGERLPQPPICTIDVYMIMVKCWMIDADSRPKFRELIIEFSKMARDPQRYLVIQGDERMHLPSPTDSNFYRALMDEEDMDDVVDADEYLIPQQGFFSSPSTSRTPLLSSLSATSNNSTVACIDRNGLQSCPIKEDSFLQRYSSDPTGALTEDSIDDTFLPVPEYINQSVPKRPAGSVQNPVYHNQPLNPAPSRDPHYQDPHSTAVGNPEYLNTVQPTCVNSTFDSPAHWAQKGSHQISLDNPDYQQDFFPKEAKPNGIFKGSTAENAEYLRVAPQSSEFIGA
# [25] = target: T5, MAPKAPK2 (Homo sapiens, UniProt P49137)
# T5 construct: T7 phage fusion (most assays) or DNA label after HEK293 expression; purchased DiscoveRx (KINOMEscan, LeadHunter Discovery services); host or cells: T7 phage in E. coli (BL21-derived) or HEK293
# T5 sequence (P49137 whole entry, the tested form may be a part): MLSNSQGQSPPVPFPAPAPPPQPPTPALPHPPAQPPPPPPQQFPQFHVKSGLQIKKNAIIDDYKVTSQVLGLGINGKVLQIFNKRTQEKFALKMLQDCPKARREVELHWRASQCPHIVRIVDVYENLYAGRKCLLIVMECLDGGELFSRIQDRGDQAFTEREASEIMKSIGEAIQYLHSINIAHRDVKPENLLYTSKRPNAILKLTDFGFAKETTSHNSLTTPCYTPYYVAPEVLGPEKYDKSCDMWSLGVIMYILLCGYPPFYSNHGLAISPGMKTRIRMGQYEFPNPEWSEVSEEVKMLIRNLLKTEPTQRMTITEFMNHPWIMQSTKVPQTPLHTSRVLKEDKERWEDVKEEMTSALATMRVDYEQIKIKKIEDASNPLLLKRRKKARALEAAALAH
# [26] = target: EGFR (L861Q) (Homo sapiens, UniProt P00533, L861Q)
# [27] = target: YES (Homo sapiens, UniProt P07947)
# [28] = target: PHKG1 (Homo sapiens, UniProt Q16816)
# [29] = target: JNK2 (Homo sapiens, UniProt P45984)
# [30] = target: LOK (Homo sapiens, UniProt O94804)
# [31] = target: CDKL1 (Homo sapiens, UniProt Q00532)
# [32] = target: EGFR (L747-E749del, A750P) (Homo sapiens, UniProt P00533, A750P/DEL747-749)
# [33] = target: RAF1 (Homo sapiens, UniProt P04049)
# [34] = target: MST1R (Homo sapiens, UniProt Q04912)
# [35] = target: STK36 (Homo sapiens, UniProt Q9NRP7)
# [36] = target: T6, VEGFR2 (Homo sapiens, UniProt P35968)
# T6 construct: purchased DiscoveRx (KINOMEscan, LeadHunter Discovery services)
# [37] = target: PKAC-beta (Homo sapiens, UniProt P22694)
# [38] = target: PIK3CA (H1047L) (Homo sapiens, UniProt P42336, H1047L)
# [39] = target: MEK5 (Homo sapiens, UniProt Q13163)
# [40] = target: SRPK2 (Homo sapiens, UniProt P78362)
# PCTK3, sequence (Q07002 whole entry): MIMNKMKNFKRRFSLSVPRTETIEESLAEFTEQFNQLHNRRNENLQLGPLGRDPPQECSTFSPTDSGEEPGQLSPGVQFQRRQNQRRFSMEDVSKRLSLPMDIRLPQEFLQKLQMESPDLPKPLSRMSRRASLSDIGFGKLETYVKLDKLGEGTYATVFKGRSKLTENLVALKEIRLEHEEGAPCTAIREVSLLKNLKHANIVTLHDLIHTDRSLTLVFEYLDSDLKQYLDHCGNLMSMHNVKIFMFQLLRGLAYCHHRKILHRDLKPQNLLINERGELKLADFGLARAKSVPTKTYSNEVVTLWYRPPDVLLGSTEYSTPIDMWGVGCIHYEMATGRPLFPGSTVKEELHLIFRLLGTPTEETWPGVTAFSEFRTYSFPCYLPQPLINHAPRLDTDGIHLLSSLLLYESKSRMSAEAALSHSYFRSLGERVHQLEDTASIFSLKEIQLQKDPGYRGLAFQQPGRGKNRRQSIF
# GSK3A, sequence (P49840 whole entry): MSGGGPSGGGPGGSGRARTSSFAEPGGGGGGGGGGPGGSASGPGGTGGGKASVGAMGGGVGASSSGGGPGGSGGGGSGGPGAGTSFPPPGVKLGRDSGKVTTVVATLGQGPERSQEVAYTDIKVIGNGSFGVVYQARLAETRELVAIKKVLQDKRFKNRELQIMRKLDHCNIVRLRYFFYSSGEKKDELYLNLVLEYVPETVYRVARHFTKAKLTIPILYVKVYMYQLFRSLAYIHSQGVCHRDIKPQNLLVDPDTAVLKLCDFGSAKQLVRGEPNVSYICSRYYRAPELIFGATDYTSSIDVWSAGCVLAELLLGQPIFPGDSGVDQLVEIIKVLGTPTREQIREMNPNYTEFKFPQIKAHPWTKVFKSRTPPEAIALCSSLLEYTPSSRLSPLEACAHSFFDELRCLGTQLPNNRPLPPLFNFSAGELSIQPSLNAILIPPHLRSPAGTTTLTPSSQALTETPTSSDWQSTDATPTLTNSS
SMILES,remaining binding at 10 µM [1],remaining binding at 10 µM [2],remaining binding at 10 µM [3],remaining binding at 10 µM [4],remaining binding at 10 µM [5],remaining binding at 10 µM [6],remaining binding at 10 µM [7],remaining binding at 10 µM [8],remaining binding at 10 µM [9],remaining binding at 10 µM [10],remaining binding at 10 µM [11],remaining binding at 10 µM [12],remaining binding at 10 µM [13],remaining binding at 10 µM [14],remaining binding at 10 µM [15],remaining binding at 10 µM [16],remaining binding at 10 µM [17],remaining binding at 10 µM [18],remaining binding at 10 µM [19],remaining binding at 10 µM [20],other results
"Nc1ncc(-c2nc3ccccc3o2)c(-c2ccncc2)n1 [Comparative Compound 324, 5-(1,3-benzoxazol-2-yl)-4-(pyridine-4-yl)pyrimidin-2-amine]",94%,86%,86%,100%,66%,75%,52%,100%,41%,65%,94%,100%,83%,78%,91%,70%,98%,93%,100%,99%,remaining binding at 10 µM [21]: 98%; remaining binding at 10 µM [22]: 100%; remaining binding at 10 µM [23]: 97%; remaining binding at 10 µM [24]: 51%; remaining binding at 10 µM [25]: 100%; remaining binding at 10 µM [26]: 64%; remaining binding at 10 µM [27]: 100%; remaining binding at 10 µM [28]: 100%; remaining binding at 10 µM [29]: 18%; remaining binding at 10 µM [30]: 72%; remaining binding at 10 µM [31]: 68%; remaining binding at 10 µM [32]: 64%; remaining binding at 10 µM [33]: 100%; remaining binding at 10 µM [34]: 85%; remaining binding at 10 µM [35]: 96%; remaining binding at 10 µM [36]: 94%; remaining binding at 10 µM [37]: 95%; remaining binding at 10 µM [38]: 100%; remaining binding at 10 µM [39]: 66%; remaining binding at 10 µM [40]: 100%
"CNc1c(C(N)=O)c2ccccn2c1C(=O)c1ccc(F)cc1 [Compound A, 2-methyl-amino-3-[(4-fluorophenyl)carbonyl]indolizine-1-carboxamide]",92%,56%,84%,85%,86%,46%,72%,43%,35%,66%,53%,100%,86%,93%,71%,100%,65%,86%,37%,92%,remaining binding at 10 µM [21]: 92%; remaining binding at 10 µM [22]: 100%; remaining binding at 10 µM [23]: 82%; remaining binding at 10 µM [24]: 88%; remaining binding at 10 µM [25]: 100%; remaining binding at 10 µM [26]: 29%; remaining binding at 10 µM [27]: 78%; remaining binding at 10 µM [28]: 97%; remaining binding at 10 µM [29]: 45%; remaining binding at 10 µM [30]: 61%; remaining binding at 10 µM [31]: 61%; remaining binding at 10 µM [32]: 13%; remaining binding at 10 µM [33]: 95%; remaining binding at 10 µM [34]: 81%; remaining binding at 10 µM [35]: 69%; remaining binding at 10 µM [36]: 79%; remaining binding at 10 µM [37]: 63%; remaining binding at 10 µM [38]: 100%; remaining binding at 10 µM [39]: 51%; remaining binding at 10 µM [40]: 100%
